Where a name gives a salt, the structure may show the parent alone. Read-outs that look alike come from different tables or passages of the source.
Biological target: T1, IRAK4 (Homo sapiens, UniProt Q9NWZ3)
T1 sequence (Q9NWZ3 1-460): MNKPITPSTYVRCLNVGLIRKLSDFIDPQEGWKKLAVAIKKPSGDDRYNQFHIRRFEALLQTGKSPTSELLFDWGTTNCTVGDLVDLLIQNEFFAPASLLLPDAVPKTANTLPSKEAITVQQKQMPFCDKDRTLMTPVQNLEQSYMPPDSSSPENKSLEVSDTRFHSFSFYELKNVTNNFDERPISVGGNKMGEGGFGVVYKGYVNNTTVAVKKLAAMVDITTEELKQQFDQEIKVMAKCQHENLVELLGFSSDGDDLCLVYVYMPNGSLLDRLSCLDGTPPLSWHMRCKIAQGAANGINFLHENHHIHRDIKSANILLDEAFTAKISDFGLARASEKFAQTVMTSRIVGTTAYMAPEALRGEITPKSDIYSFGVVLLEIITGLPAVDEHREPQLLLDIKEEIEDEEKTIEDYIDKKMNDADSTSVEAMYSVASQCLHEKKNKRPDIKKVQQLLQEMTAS
Experiment: biochemical

[1] = IRAK4 Biochemical Assay (1 mM ATP, 2 h) IC50 (μM), 1 mM ATP, 2 h, 100 pM IRAK4

SMILES | IC50 | IC50 [1]
CCC(C)Oc1nc2nc(C34COC(C)(C3)C4)cn2cc1C(=O)Nc1cnn2cc(C)cnc12 (single isomer, unassigned) [Example 642] | 0.0013 µM | –
CCOc1nc(C(=O)Nc2cccnc2OC(F)F)cn2cc(C34COC(C)(C3)C4)nc12 [Example 492, N-(2-(difluoromethoxy)pyridin-3-yl)-8-ethoxy-2-(1-methyl-2-oxabicyclo[2.1.1]hexan-4-yl)imidazo[1,2-a]pyrazine-6-carboxamide] | 0.0016 µM | –
CC(C)Oc1nc2nc(C34COC(C)(C3)C4)cn2cc1C(=O)Nc1cccc2ccnn12 [Example 385, 7-Isopropoxy-2-(1-methyl-2-oxabicyclo[2.1.1]hexan-4-yl)-N-(pyrazolo[1,5-a]pyridin-7-yl)imidazo[1,2-a]pyrimidine-6-carboxamide] | 0.0004 µM | –
CC(C)Oc1nc2nc(C34COC(CF)(C3)C4)cn2cc1C(=O)Nc1cccn(C(F)F)c1=O [Example 381, N-(1-(difluoromethyl)-2-oxo-1,2-dihydropyridin-3-yl)-2-(1-(fluoromethyl)-2-oxabicyclo[2.1.1]hexan-4-yl)-7-isopropoxyimidazo[1,2-a]pyrimidine-6-carboxamide] | 0.0004 µM | –
CC(C)Oc1nc2nc(C34COC(C)(C3)C4)cn2cc1C(=O)Nc1cccc(N(C)C)n1 [Example 357, N-(6-(dimethylamino)pyridin-2-yl)-7-isopropoxy-2-(1-methyl-2-oxabicyclo[2.1.1]hexan-4-yl)imidazo[1,2-a]pyrimidine-6-carboxamide trifluoroacetate] | – | 0.0003 µM
COc1cc2nc(C3CCOCC3)cn2cc1C(=O)Nc1cccn(C)c1=O [Example 183] | 0.0069 µM | –
COc1cc2nc(C3CC34CCCCO4)cn2cc1C(=O)Nc1ccccn1 (stereo not shown) [Example 6] | 0.151 µM | –
CCOc1cc2nc(C(F)F)cn2cc1C(=O)Nc1cccc(C(F)F)n1 [Example 95, 2-(Difluoromethyl)-N-(6-(difluoromethyl)pyridin-2-yl)-7-ethoxyimidazo[1,2-a]pyridine-6-carboxamide] | 0.0005 µM | –
CC12CC(c3cn4cc(C(=O)Nc5ccn(CC(F)F)n5)c(OC5CCC5)cc4n3)(CO1)C2 [Example 530, 7-Cyclobutoxy-N-(1-(2,2-difluoroethyl)-1H-pyrazol-3-yl)-2-(1-methyl-2-oxabicyclo[2.1.1]hexan-4-yl)imidazo[1,2-a]pyridine-6-carboxamide] | 0.0056 µM | –
Cc1cnc2c(NC(=O)c3cn4cc(C56CCC(C)(C5)OC6)nc4cc3OC3CCC3)cnn2c1 (stereo not shown) [Example 426, 7-Cyclobutoxy-2-(1-methyl-2-oxabicyclo[2.2.1]heptan-4-yl)-N-(6-methylpyrazolo[1,5-a]pyrimidin-3-yl)imidazo[1,2-a]pyridine-6-carboxamide] | 0.0003 µM | –
Cn1ccc(NC(=O)c2cn3cc(C4CC4)nc3c(OC3CC3)n2)n1 [Example 281, 8-Cyclopropoxy-2-cyclopropyl-N-(1-methyl-1H-pyrazol-3-yl)imidazo[1,2-a]pyrazine-6-carboxamide] | 0.0264 µM | –
CC(C)Oc1nc2nc([C@]34CC[C@](C)(C3)OC4)cn2cc1C(=O)Nc1cnn2cccnc12 (single isomer, unassigned) [Example 613] | 0.0005 µM | –
CC1(C)CC(Oc2cc3nc(C4CC4)cn3cc2C(=O)Nc2cccn(C(F)F)c2=O)C1 [Example 460, 2-Cyclopropyl-N-(1-(difluoromethyl)-2-oxo-1,2-dihydropyridin-3-yl)-7-(3,3-dimethylcyclobutoxy)imidazo[1,2-a]pyridine-6-carboxamide] | 0.0099 µM | –
CCOc1nc(C(=O)Nc2cccc3c2CCC3)cn2cc(C3CCOCC3)nc12 [Example 211] | 0.0116 µM | –
CC(C)Oc1nc2nc(C34COC(C)(C3)C4)cn2cc1C(=O)Nc1cccc(-c2cnoc2)n1 [Example 640, 7-Isopropoxy-N-(6-(isoxazol-4-yl)pyridin-2-yl)-2-(1-methyl-2-oxabicyclo[2.1.1]hexan-4-yl)imidazo[1,2-a]pyrimidine-6-carboxamide] | 0.0007 µM | –
CC(C)(C)c1cn2cc(C(=O)Nc3cccc(C(F)F)n3)c(OC3COC4(CC4)C3)cc2n1 (stereo not shown) [Example 268, 7-((4-Oxaspiro[2.4]heptan-6-yl)oxy)-2-(tert-butyl)-N-(6-(difluoromethyl)pyridin-2-yl)imidazo[1,2-a]pyridine-6-carboxamide] | 0.0083 µM | –

Further lines, results first:

IC50 | IC50 [1] | SMILES
– | 0.0372 µM | CC(C)Oc1cc2nc(C34COC(C)(C3)C4)c(F)n2cc1C(=O)Nc1ccn(C)n1 [Example 327, 3-Fluoro-7-isopropoxy-N-(1-methyl-1H-pyrazol-3-yl)-2-(1-methyl-2-oxabicyclo[2.1.1]hexan-4-yl)imidazo[1,2-a]pyridine-6-carboxamide trifluoroacetate]
0.0002 µM | – | CC(C)Oc1cc2nc(C34CC(C#N)(C3)C4)cn2cc1C(=O)Nc1cccc(C(F)F)n1 [Example 402, 2-(3-Cyanobicyclo[1.1.1]pentan-1-yl)-N-(6-(difluoromethyl)pyridin-2-yl)-7-isopropoxyimidazo[1,2-a]pyridine-6-carboxamide]
0.006 µM | – | Cn1ccc(NC(=O)c2cn3cc(C45COC(C)(C4)C5)nc3nc2OC2CCCC2)n1 [Example 285, 7-(Cyclopentyloxy)-N-(1-methyl-1H-pyrazol-3-yl)-2-(1-methyl-2-oxabicyclo[2.1.1]hexan-4-yl)imidazo[1,2-a]pyrimidine-6-carboxamide]
0.0003 µM | – | CC(C)Oc1nc2nc([C@]34CC[C@](C)(C3)OC4)cn2cc1C(=O)Nc1cccn(C(F)F)c1=O (single isomer, unassigned) [Example 629]
– | 0.0003 µM | CC(C)Oc1cc2nc(C34COC(C)(C3)C4)cn2cc1C(=O)Nc1cccc(C#N)c1F [Example 257, N-(3-cyano-2-fluorophenyl)-7-isopropoxy-2-(1-methyl-2-oxabicyclo[2.1.1]hexan-4-yl)imidazo[1,2-a]pyridine-6-carboxamide trifluoroacetate]
0.0037 µM | – | CC(C)Oc1cc2nc([C@]34CC[C@H](C3)OC4)cn2cc1C(=O)Nc1ccn(C)n1 (single isomer, unassigned) [Example 581]
0.0095 µM | – | Cc1nocc1NC(=O)c1cn2cc(C34CCC(C)(C3)OC4)nc2cc1OC(C)C (stereo not shown) [Example 507, 7-Isopropoxy-2-(1-methyl-2-oxabicyclo[2.2.1]heptan-4-yl)-N-(3-methylisoxazol-4-yl)imidazo[1,2-a]pyridine-6-carboxamide]
0.0045 µM | – | Cn1ccc(NC(=O)c2cn3cc([C@]45CC[C@](C)(C4)OC5)nc3nc2OC2CCC2)n1 (single isomer, unassigned) [Example 648]
0.0002 µM | – | CC(C)Oc1cc2nc(C34CCC(C3)OC4)cn2cc1C(=O)Nc1cccc(C(F)F)n1 (stereo not shown) [Example 246]
0.0002 µM | – | C[C@H](Oc1cc2nc(C34COC(C)(C3)C4)cn2cc1C(=O)Nc1cccc(C(F)F)n1)C1CC1 (single isomer, unassigned) [Example 656]
0.0016 µM | – | CC(C)Oc1cc2nc(C34COC(C)(C3)C4)cn2cc1C(=O)Nc1ccnc2cccnc12 [Example 319, 7-Isopropoxy-2-(1-methyl-2-oxabicyclo[2.1.1]hexan-4-yl)-N-(1,5-naphthyridin-4-yl)imidazo[1,2-a]pyridine-6-carboxamide]
0.0005 µM | – | CC(C)Oc1cc2nc(C34CCC(C)(C3)OC4)cn2cc1C(=O)Nc1cccc(C(F)F)c1 (stereo not shown) [Example 514, N-(3-(difluoromethyl)phenyl)-7-isopropoxy-2-(1-methyl-2-oxabicyclo[2.2.1]heptan-4-yl)imidazo[1,2-a]pyridine-6-carboxamide]

From patent US20230087118A1, “IMIDAZO[1,2-a][sequence] DERIVATIVES AND THEIR USE IN THE TREATMENT OF DISEASE” (priority 2019, published 2023)
